Molecular target: T1, Dimer of Gag-Pol polyprotein [489-587] (Human immunodeficiency virus 1, UniProt P12497)
T1 construct: 489-587
Test: Protease Inhibition Assay
Conditions: pH 5.6; 37 °C
Protocol: Protease activity was measured by continuous chromogenic assay. The chromogenic peptide His-Lys-Ala-Arg-Val-Leu-(p-NO2-Phe)-Glu-Ala-Nleu-Ser was used as a substrate. Reactions were followed by the decrease of absorbance at 300 nm measured by spectrophotometer. Experimental results were analyzed by the nonlinear regression analysis, using a mathematical model for tight binding inhibitors.

## CC(C)(C)NC(=O)c1ccccc1C[C@@H](O)[C@H](Cc1ccccc1)NC(=O)[C@H](CC(N)=O)NC(=O)c1ccc2ccccc2n1 [(2S)-N-[(2S,3R)-4-[2-(tert-butylcarbamoyl)phenyl]-3-hydroxy-1-phenylbutan-2-yl]-2-(quinolin-2-ylformamido)butanediamide]
  Ki: 2 nM

From BindingDB's records for doi:10.1021/jm960092w (Agouron Pharmaceuticals, 1996)
